Data set [1] relates to A549 cells. Kind of data set: translational efficiency of mRNAs capped with the analogs in A549 cells (Gaussia luciferase). Format: cell-based. The conditions noted are these: mRNA capped with the analog; Gaussia luciferase activity in A549 cells 72 h post-transfection; normalized to m^7GpppG RNA. As to the method:
Finally, we tested the properties of arylmethyl cap analogs as reagents for co-transcriptional mRNA capping. […] Here, we sought to evaluate the translational properties of mRNAs capped with N7-arylmethyl analogs in cultured cells. To that end, the translation properties of transcripts capped with selected analogs were assessed in A549 cells. In vitro transcribed mRNAs encoding Gaussia luciferase, capped with compounds 1a–1k, 1m–1n, and 1p–1r or with reference analogues m^7GpppG and ARCA (m^7GmpppG), were purified via RP HPLC, transfected into A549 cells, and the protein activity (luminescence) was measured using a reporter assay at 72 h post-transfection. The total amount of protein produced over 72 h from each capped RNA was normalized to m^7GpppG RNA (Figure 6 and Figure S4). […] Namely, replacing the N7-methyl group with a benzyl moiety (1a) increased protein production over fivefold in A549 cells compared to m^7GpppG-capped mRNA (Figure 6).
The influence of N7-arylmethylated dinucleotide 5′ cap analogues on the translational properties of HPLC-purified IVT mRNA is shown in Figure S4, Measurements are total protein produced over 72 h by A549 cells transfected with capped mRNAs. Each plot in Figure S4 represents a single experiment consisting of three independent transfections of the cells at the same passage. Bars show mean value normalized to […] ± SD. In the main manuscript, all nine data points from three different cell passages were combined to present cumulative protein expression.

The target of data set [2] is eukaryotic translation initiation factor 4E (eIF4E) (Mus musculus, UniProt P63073). Kind of data set: pyrene-probe fluorescent competitive-binding assay (PyFLINT-B) for cap analog-eIF4E. The source says:
High affinity for eIF4E is a desirable feature of cap analogs designed for modulating translation, either as small molecules or as a part of mRNA. Thus, we studied how different substituents at the N7-position affected eIF4E-cap interaction. To this end, we first determined the affinity of m^7GpppG and Bn^7GpppG (1a) using time-synchronized fluorescence quenching titration, a very precise and well-established, but low-throughput method. Next, to evaluate the whole set of the synthesized compounds (1a–1r), we used a high-throughput competitive-binding assay based on a pyrene-labeled fluorescent probe. From this assay we determined relative affinities of the compounds represented by half-effective concentrations (EC50) (Figure 3A–C), which were then used to calculate dissociation constant (KD) values for cap analog–eIF4E complexes using previously reported equations (Table 2, Figure 3D).
To determine the dissociation constants of the library of N7-benzylated dinucleotide 5′ cap analogs for translation initiation factor 4E, a fluorescent competitive-binding assay (PyFLINT-B) was applied as previously described. The experiments were performed on a Synergy™ H1 plate reader in 96-well, black, non-binding assay plates. Each well contained an appropriate buffer (50 mM Hepes/KOH pH 7.2, 100 mM KCl and 0.5 mM EDTA), pyrene probe m^7Gp5C4Py (10 nM), substrate (in half-logarithmic dilutions from 850 μM to 0.03 μM for compound 1m and from 100 μM to 0.003 μM for m^7GpppG and the rest of the compounds) and protein eIF4E (75 nM). The m^7Gp5C4Py was synthesized as describer earlier. The pyrene probe was dissolved in water and concentration was determined spectrometrically at 345 nm using the extinction coefficient (21,000 M^−1 cm^−1). The eIF4E protein was centrifuged after defrosting (5 min, 4 °C, 10k rcf) and its concentration was determined spectrometrically at 280 nm using the extinction coefficient (52,940 M^−1 cm^−1). The reaction mixtures were preincubated (15 min, 300 rpm, 30 °C). All measurements were performed at 30 °C and the fluorescence detection at 345 nm excitation and 378 nm emission was recorded.
To determine EC50 values, GraphPad Prism 9.1.2 software was used. To fit the curves to the obtained data we used the following formula:(1) Y=Bottom+ Top−Bottom/1+ X/EC50 where: X, cap analog (ligand) concentration; EC50, concentration of the cap analog resulting in half-maximal response from the fluorescent probe–protein complex; Bottom, minimal signal from the negative control, which contains only the free probe; Top, maximal signal from the positive control, the mixture of the protein and the fluorescent probe.
The dissociation constants KD were then calculated using the equation described by Nikolovska-Coleska et al.:(2) KD=EC50−Pt+PL50KD_probe/L50+1/L50/KD_probe+P0/KD_probe+1 where: EC50, concentration of the cap analog resulting in half-maximal response from the fluorescent probe–protein complex; [Pt], total protein concentration; [PL]50, concentration of the probe–protein complex at 50% inhibition; KD_probe, dissociation constant of the complex between the fluorescent probe and the protein; [L]50, probe concentration at 50% inhibition; [P]0, free protein concentration at 0% inhibition.

Data set [3] concerns cap-dependent translation in rabbit reticulocyte lysate (RRL). Description: inhibition of cap-dependent translation in rabbit reticulocyte lysate (RRL). Format: biochemical. Particulars: RRL, cap analog and mRNA added at the same time (no pre-incubation), 60 min, 30 °C; read-out: Translation Inhibition IC50. As to the method: After determining the affinity for eIF4E and susceptibility to DcpS, we evaluated the analogs as inhibitors of protein translation in rabbit reticulocyte lysates (RRL). To enable better assessment of how these two factors influenced inhibitory properties, we performed two sets of experiments. In the first set, cap analogs were added to RRL along with luciferase-encoding reporter mRNA followed by a protein activity (luminescence) readout after 1 h, whereas in the second set cap analogs were additionally preincubated in RRL for 1 h prior to addition of mRNA. Based on previously reported findings, we expected that in the second experimental setup, cap analogs susceptible to DcpS would lose their inhibitory potency, whereas compounds resistant to DcpS would remain similarly active.
The ability of the N7-benzyl cap analogues to inhibit cap-dependent translation was assayed in a rabbit reticulocyte lysate (RRL) system. Two sets of experiments were performed. In both variants, in vitro translation reactions (10 μL total volume) contained a tested cap analog (inhibitor) and an in vitro transcribed, ARCA-capped mRNA encoding Gaussia luciferase at 1 μg/mL final concentration. In experimental variant A, cap analogues at concentrations in the range of 0 to 64 μM and mRNA were added to the reaction mixture at the same time. Reactions were incubated at 30 °C for 60 min and then stopped by freezing in liquid nitrogen. In experimental variant B, the cap analogues were added at concentrations in the range of 0 to 160 μM. Reactions were pre-incubated at 30 °C for 60 min prior to addition of mRNA; after addition of mRNA incubation was continuous at 30 °C for 60 min and then stopped by freezing in liquid nitrogen. To detect luminescence from Gaussia luciferase, 50 μL of 10 ng/mL h-coelenterazine (NanoLight, Norman, OK, USA) in PBS was added to 10 μL of RRL and the luminescence was measured with a Synergy H1 (BioTek, Winooski, VT, USA) microplate reader.

The target in data set [4] is T1, hDcpS (Homo sapiens, UniProt Q96C86).
T1 sequence (Q96C86 1-337): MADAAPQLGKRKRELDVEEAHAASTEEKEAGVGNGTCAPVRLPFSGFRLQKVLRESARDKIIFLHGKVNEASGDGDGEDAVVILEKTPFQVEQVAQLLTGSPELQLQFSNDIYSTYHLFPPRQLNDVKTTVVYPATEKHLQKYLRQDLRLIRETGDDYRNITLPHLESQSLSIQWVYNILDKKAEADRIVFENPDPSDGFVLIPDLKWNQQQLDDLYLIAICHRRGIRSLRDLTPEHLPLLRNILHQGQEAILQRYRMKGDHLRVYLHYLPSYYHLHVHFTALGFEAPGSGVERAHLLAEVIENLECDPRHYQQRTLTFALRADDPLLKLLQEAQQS
Format: in vitro ADME. The conditions noted are these: 100 μM compound, 20 nM hDcpS. As to the method: Susceptibility to decapping scavenger (DcpS) is one of the factors that could potentially influence the cellular stability of mono- and dinucleotide cap analogs designed as translational inhibitors. Therefore, we studied the susceptibility of arylmethyl-modified dinucleotides to DcpS. The compounds (at 100 μM concentration each) were incubated with 20 nM of hDcpS, and the hydrolysis progress at different time points was analyzed via RP HPLC and compared to m^7GpppG (Figure 4 and Figure S3).
The enzymatic activity of DcpS was assayed at 37 °C in 50 mM Tris∙HCl, pH 7.6 containing 200 mM KCl, 0.5 mM EDTA. DcpS cleavage assays were carried out with 100 μM of the tested compound and 20 nM (monomer) of the hDcpS. Enzymatic reaction progress was examined after 30, 60 and 180 min. As a control, a sample was examined before adding enzyme. Aliquots of 15 μL were terminated by heat inactivation of the enzyme for 3 min at 98 °C. The samples were analyzed via RP HPLC equipped with a Supelcosil LC-18-T column (4.6 × 250 mm, 5 μm, flow rate 1.3 mL/min).

For data set [5], the target named is eIF4E (Mus musculus, UniProt P63073). Description: fluorescence anisotropy (FA) competition assay with eIF4E. Format: binding. The conditions noted are these: Table S2. The source says: The KD values determined from the high-throughput assay were in qualitative agreement with data from time-synchronized fluorescence quenching titration, justifying the use of the former for evaluation of the whole set of caps. […] To additionally verify the binding affinity data (especially for 1q and 1r, as mentioned above), we determined the binding affinities for all analogs using another independent assay, based on fluorescence anisotropy. The KD data determined by this method correlated very well with the results reported above (Table S2, Figure S2).
Fractions of the compounds were independently tested using a different method based on fluorescence anisotropy (FA). These experiments were performed on a Synergy™ H1 plate reader in 96-well, black, non-binding assay plates. Each well contained appropriate buffer (50 mM HEPES/KOH pH 7.2, 100 mM KCl, 0.5 mM EDTA i 1 mM DTT), the fluorescent probe m^7GTP-triazol-FAM (10 nM), substrate (in a 2.08-fold dilution, starting from 60 μM) and protein eIF4E (100 nM). The m^7GTP-triazol-FAM was synthesized as describer earlier. All measurements were performed at 25 °C. Determined EC50 values were means ± SD of three independent experiments. The dissociation constants KD were then calculated using the equation described by Nikolovska-Coleska as described earlier.
(In general: Polarisation of emitted light reports the rotation of a fluorescent probe.)

Chain of eIF4E (P63073 whole entry): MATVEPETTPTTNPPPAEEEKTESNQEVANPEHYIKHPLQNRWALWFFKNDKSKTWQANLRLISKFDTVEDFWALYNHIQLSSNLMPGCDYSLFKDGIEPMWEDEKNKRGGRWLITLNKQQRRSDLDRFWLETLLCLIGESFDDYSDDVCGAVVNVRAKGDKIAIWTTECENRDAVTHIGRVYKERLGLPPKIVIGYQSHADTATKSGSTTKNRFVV
Chain of eukaryotic translation initiation factor 4E (eIF4E) (P63073 whole entry): as above

With m^7GmpppG [reference compound], the “Rel. Protein Expression” value in data set [1] is reported as 8.6 ± 1.0.
As to `Cc1cc(C)cc(C[n+]2cn([C@@H]3O[C@H](COP(=O)(O)OP(=O)([O-])OP(=O)(O)OC[C@H]4O[C@@H](n5cnc6c(=O)[nH]c(N)nc65)[C@H](O)[C@@H]4O)[C@@H](O)[C@H]3O)c3nc(N)nc(O)c32)c1` [1f, 3,5-di-MeBn^7GpppG], the 50% effective concentration (EC50) (in general, the concentration needed to bring the measured effect to its halfway point) is 7500 nM in data set [2] (Table S2) and 1100 ± 100 nM in data set [5] (25 °C, probe m^7GTP-triazol-FAM 10 nM, eIF4E 100 nM). Besides, the Kd (usually a measure of binding affinity in units of concentration) in data set [2] (pyrene-based high-throughput competition assay, 30 °C, KD calculated from EC50, read-out: KD Cap-eIF4E ± SD) is 646 ± 114 nM; in data set [5] (calculated from EC50), 384 ± 41 nM. Also, the IC50 (commonly the concentration that inhibits the measured activity by half) in data set [3] came out at 13200 ± 2000 nM. Besides, the “susceptibility to hDcpS (in words)” value in data set [4] is given as “Lower susceptibility to hydrolysis”. The “hDcpS Assay: fraction of the cap remaining after 1 h incubation with DcpS” value in data set [4] (37 °C, 1 h) came out at 0.95.
